Read-outs that look alike come from different tables or passages of the source.
How the values were obtained:
Assay in all cases: Thermal stability shift assay
Type in all cases: binding
[1] = target: T1, RHOK (Homo sapiens, UniProt Q15835); conditions: read-out: Tm shift RHOK
T1 sequence (Q15835 1-563): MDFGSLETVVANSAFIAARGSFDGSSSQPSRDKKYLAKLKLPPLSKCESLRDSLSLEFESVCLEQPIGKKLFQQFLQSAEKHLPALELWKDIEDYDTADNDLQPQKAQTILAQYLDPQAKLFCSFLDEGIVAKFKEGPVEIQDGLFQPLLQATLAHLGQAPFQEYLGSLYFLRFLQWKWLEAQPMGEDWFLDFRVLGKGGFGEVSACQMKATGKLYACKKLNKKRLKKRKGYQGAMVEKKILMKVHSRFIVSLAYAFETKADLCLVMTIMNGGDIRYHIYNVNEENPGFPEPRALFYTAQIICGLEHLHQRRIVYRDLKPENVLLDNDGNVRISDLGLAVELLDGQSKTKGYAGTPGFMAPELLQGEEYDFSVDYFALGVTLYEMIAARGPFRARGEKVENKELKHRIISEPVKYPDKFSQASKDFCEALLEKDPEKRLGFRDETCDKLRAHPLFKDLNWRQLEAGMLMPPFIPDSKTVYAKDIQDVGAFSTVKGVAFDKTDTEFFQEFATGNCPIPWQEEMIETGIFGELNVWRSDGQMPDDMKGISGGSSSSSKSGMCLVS
Method: (§1) Thermal denaturation experiments were carried out in an Mx3005p real-time PCR machine (Agilent) using a protein concentration of 2 μM and an inhibitor concentration of 10 μM. Samples were buffered in 10 mM HEPES (pH 7.5), 500 mM NaCl and a 1:1000 dilution of SyproOrange (Invitrogen). The assay and data evaluation were carried out as described ([Bullock et al., 2005])

[2] = target: T2, PKD2 (Homo sapiens, UniProt Q9BZL6); conditions: read-out: Tm shift PKD2
T2 sequence (Q9BZL6 1-878): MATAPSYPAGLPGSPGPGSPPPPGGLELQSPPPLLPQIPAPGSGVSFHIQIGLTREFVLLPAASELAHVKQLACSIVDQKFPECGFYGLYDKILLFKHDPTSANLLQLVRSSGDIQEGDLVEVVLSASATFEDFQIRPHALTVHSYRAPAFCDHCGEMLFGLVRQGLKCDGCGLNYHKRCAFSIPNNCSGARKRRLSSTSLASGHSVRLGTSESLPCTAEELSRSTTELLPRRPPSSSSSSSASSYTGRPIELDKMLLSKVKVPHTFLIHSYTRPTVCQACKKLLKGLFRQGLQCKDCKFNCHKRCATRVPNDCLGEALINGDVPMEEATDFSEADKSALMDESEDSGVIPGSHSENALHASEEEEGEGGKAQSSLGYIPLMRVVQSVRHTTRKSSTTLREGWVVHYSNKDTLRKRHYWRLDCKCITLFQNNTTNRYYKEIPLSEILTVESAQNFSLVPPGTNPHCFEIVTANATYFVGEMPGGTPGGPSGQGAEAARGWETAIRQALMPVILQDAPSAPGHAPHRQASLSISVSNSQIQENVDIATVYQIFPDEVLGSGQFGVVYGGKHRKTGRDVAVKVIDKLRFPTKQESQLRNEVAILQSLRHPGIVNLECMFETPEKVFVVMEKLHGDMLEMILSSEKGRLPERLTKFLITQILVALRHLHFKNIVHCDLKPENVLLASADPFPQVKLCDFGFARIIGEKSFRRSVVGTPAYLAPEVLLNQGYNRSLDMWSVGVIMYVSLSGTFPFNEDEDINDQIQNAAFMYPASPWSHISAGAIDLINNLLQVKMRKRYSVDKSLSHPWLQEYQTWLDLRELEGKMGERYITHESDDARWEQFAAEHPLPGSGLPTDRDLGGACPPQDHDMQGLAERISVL
Method: as §1

[3] = target: T3, MAP3K5 (Homo sapiens, UniProt Q99683); conditions: read-out: Tm shift MAP3K5
T3 construct: purchased in-house (SGC Oxford thermal shift panel)
T3 sequence (Q99683 1-1374): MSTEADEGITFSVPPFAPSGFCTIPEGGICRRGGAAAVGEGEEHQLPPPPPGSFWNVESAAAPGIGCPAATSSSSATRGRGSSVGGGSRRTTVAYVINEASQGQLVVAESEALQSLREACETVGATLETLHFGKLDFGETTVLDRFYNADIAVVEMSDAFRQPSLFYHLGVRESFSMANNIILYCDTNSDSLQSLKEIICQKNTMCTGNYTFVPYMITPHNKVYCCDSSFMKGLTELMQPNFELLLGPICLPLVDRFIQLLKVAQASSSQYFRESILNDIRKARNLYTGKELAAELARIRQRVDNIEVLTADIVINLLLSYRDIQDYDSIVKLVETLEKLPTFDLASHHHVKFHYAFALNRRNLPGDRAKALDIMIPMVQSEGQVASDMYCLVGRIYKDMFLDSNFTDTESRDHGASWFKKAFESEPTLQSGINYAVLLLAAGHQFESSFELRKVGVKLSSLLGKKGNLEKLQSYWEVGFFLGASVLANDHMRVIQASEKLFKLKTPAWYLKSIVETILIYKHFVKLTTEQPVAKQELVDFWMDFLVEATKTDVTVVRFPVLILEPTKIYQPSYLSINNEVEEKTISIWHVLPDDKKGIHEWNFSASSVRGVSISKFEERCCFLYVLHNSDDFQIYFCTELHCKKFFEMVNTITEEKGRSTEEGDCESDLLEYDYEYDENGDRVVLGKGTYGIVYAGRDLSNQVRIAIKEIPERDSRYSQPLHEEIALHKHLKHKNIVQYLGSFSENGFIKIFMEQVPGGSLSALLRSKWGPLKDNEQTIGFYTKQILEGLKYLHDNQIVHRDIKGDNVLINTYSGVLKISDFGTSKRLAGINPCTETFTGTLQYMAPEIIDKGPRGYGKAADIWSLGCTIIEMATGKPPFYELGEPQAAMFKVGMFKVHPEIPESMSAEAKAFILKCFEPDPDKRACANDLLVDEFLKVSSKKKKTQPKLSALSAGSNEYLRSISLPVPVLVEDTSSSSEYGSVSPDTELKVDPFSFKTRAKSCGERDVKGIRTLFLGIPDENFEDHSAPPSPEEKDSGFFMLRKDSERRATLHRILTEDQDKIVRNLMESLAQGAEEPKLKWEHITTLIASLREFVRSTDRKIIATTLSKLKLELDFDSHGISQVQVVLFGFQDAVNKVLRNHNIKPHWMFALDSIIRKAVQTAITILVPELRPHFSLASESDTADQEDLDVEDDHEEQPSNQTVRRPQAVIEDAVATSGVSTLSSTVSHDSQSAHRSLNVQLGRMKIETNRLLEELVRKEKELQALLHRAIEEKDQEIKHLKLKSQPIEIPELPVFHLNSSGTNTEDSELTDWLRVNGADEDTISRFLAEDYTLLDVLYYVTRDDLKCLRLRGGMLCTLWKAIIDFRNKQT
Method: as §1

[4] = target: T4, FES (Homo sapiens, UniProt P07332); conditions: read-out: Tm shift FES
T4 construct: purchased in-house (SGC Oxford thermal shift panel)
Method: as §1

T4 sequence (P07332 whole entry): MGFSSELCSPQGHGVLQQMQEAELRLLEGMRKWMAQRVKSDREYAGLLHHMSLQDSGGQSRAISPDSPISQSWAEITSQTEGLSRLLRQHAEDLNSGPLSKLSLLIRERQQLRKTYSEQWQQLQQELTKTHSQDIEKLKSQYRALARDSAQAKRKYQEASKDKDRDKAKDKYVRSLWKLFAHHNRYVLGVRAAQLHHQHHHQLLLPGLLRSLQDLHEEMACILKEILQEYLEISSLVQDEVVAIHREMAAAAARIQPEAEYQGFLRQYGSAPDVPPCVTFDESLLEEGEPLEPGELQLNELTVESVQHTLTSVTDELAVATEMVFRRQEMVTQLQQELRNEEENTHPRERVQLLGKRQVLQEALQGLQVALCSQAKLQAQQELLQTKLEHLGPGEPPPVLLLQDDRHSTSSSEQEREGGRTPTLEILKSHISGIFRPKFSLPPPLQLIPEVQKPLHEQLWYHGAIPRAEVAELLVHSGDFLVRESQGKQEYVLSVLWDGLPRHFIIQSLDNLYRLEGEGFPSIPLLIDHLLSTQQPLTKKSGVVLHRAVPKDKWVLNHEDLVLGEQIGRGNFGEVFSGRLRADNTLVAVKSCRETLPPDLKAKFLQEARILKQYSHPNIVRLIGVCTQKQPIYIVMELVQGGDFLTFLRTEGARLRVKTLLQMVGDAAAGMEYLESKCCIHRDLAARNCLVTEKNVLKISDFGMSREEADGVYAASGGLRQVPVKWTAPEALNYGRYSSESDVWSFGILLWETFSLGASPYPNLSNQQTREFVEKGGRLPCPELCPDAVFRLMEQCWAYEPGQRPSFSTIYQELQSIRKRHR

ΔTm at 10 µM ([1]; inhibitor 10 μM)	ΔTm at 10 µM ([2]; inhibitor 10 μM)	ΔTm at 10 µM ([3]; inhibitor 10 μM)	ΔTm at 10 µM ([4]; inhibitor 10 μM)	Compound	ΔTm at 10 µM [1]	ΔTm at 10 µM [2]	ΔTm at 10 µM [3]	ΔTm at 10 µM [4]
–	–	–	–	CCOC(=O)c1c(C(C#N)=CN)c2ccc(Cl)c(Cl)c2n1C (mixture of isomers) [KH-CB20, (E/Z)-Ethyl 3-(2-Amino-1-Cyanovinyl)-6,7-Dichloro-1-Methyl-1H-Indole-2-Carboxylate]	0.3 °C	-0.2 °C	0.5 °C	-0.3 °C
0.9 °C	0 °C	0.2 °C	0 °C	CCOC(=O)c1c(C(C#N)=CN(C)C)c2ccc(Cl)c(Cl)c2n1C (mixture of isomers) [compound 2, (E/Z)-Ethyl 6,7-Dichloro-3-[1-Cyano-2-(Dimethylamino)Vinyl]-1-Methyl-1H-Indole-2-Carboxylate]	–	–	–	–
–	–	–	–	CCOC(=O)c1c(/C(C#N)=C\N)c2ccc(Cl)c(Cl)c2n1C [KH-CB19, (E)-Ethyl 3-(2-Amino-1-Cyanovinyl)-6,7-Dichloro-1-Methyl-1H-Indole-2-Carboxylate]	0.5 °C	0.1 °C	0.8 °C	-0.3 °C
0.9 °C	0.1 °C	0.8 °C	0 °C	Cn1c2c(Cl)c(Cl)ccc2c2c(C#N)c[nH]c(=O)c21 [compound 3, 7,8-Dichloro-9-Methyl-1-Oxo-2,9-Dihydro-1H-Pyrido[3,4-b]Indole-4-Carbonitrile]	–	–	–	–

Compound	ΔTm at 10 µM ([1]; inhibitor 10 μM)	ΔTm at 10 µM ([2]; inhibitor 10 μM)	ΔTm at 10 µM ([3]; inhibitor 10 μM)	ΔTm at 10 µM ([4]; inhibitor 10 μM)	ΔTm at 10 µM [1]	ΔTm at 10 µM [2]	ΔTm at 10 µM [3]	ΔTm at 10 µM [4]
NC1=NC(=O)/C(=C2\CCNC(=O)c3[nH]c(Br)cc32)N1 [Hymenialdisine, hymenialdisine, reference compound]	0.7 °C	0.8 °C	8.7 °C	0.7 °C	–	–	–	–

Source: article PMC3145970, “Specific CLK Inhibitors from a Novel Chemotype for Regulation of Alternative Splicing” (Chemistry & Biology, 2011)
